Laboratory results: patent US20250255847A1, “[…]s: Novel Drugs for Triple Negative Breast Cancer” (SIMMARON RSEARCH INC, priority 2024, published 2025)

Test system: TNBC tumor parenchyma
Assay: Histology, IHC and TUNEL of PDX tumor tissue
Format: in vivo, mouse
Details: for H&E staining: size and color intensities of tumor cells: 2 mg/Kg Bwt i.p.; for apoptosis in TNBC tumor (TUNEL staining): FIG. 14; for Ki-67 immunoreactivity in tumor parenchyma: p<0.0001 vs control
Procedure: FIG. 13 illustrates an embodiment of the present invention and illustrates the effects of SIM-1 and SIM-2 on the growth arrest of TNBC tumors. […] The higher magnification images were given below. (B) Area of 50 randomly selected cells (10 different images from n=5 mice/group) from three different groups were measured using polygon tool of ImageJ software and then the scatter histogram analysis was performed using GraphPad Prism 10 statistical software package. The significance of mean between groups (***p<0.001 versus control) was calculated by one-way ANOVA analysis (effector: treatment). (C) IHC staining of cell growth marker Ki-67 in vehicle-, SIM-1-, and SIM-2-treated tumors represents the cell growth property of tumor cells. […] Both hematoxylin-ir nuclei (total cells) and Ki-67-ir cells were counted in n=15 images per group, converted in percent scale, and then plotted as scatter histogram. ****p<0.0001 vs. control as derived by one-way ANOVA. (E) IHC staining of cell proliferation marker PCNA in three different groups. (F) Scatter histogram analysis of […] counted from n=15 images per group and then plotted as percent scale. […] (G) A gene array of 84 genes in a validated human breast cancer gene array (RT^2 Profiler™ PCR array; Cat #PAHS-131ZA; Qiagen) was conducted in cDNA samples extracted from TNBC tumors of vehicle, SIM-1- and SIM-2-treated (n=3) groups. The resultant gene expressions were converted in log scale and then compared with the vehicle in (G) SIM-1 and (H) SIM-2 treated groups as shown in scatter plots. […] (I) Validation of gene expressions of CCND1, CCND2, CCNE1, CDK2 genes were performed by real-time PCR analysis. (J) Upregulations of CDKN1A, and CDKN2A in SIM-1- and SIM-2-treated groups were validated by real-time PCR analyses. were Significance of mean calculated by one-way ANOVA resulted […] versus respective vehicle-groups. The results are confirmed after three different experiments.
(A) TUNEL staining to monitor apoptosis of tumor cells among all groups followed by (B) counting of TUNEL-ir cells from n=15 images per group and then plotting a scatter histogram analysis. ****p<0.0001 vs. control as derived by one-way ANOVA. (C) A protein array of 35 different apoptosis-related proteins (Human apoptosis array; Cat #ARY009; R&D Systems) was conducted in the tumor tissue extracts of three different groups. Red, purple, and green squares represent the expressions of Bad, Bax, and Cytochrome C proteins respectively. Black enclosures represent the positive controls. (D) Heatmap analysis summarizes the expressions of breast cancer 84 validated breast cancer-associated genes (RT^2 Profiler™ PCR array; Cat #PAHS-131ZA; Qiagen). These genes critically regulate the growth and apoptosis of breast cancer cells. The details of the genes can be found here (geneglobe.qiagen.com/us/product-groups/rt2-profiler-pcr-arravs/PAHS-131Z). Scatter plot analyses in FIG. 13G and FIG. 13H was performed to compare the relative expressions of apoptotic genes and growth suppressive genes between the vehicle- and SIM-1-treated as well as the vehicle- and SIM-2-treated groups.
Immunohistochemical (IHC) analyses. Tumor tissues were embedded in paraffin, cut at a thickness of 5 μm in Leica microtome, attached to a charged slide, dried in a dry bath at 37° C. for at least 48 hrs., and then progressed for IHC analysis. The IHC analysis was performed where, briefly, sections were deparaffinized by xylene and rehydrated by ethanol gradient (100%>70%>50%>20%; v/v) followed by complete rehydration by water. […]

| SMILES | H&E staining: size and color intensities of tumor cells | apoptosis in TNBC tumor (TUNEL staining) | Ki-67 immunoreactivity in tumor parenchyma |
| --- | --- | --- | --- |
| O=C(O)CCC(=O)NCc1csc2ccc(Cl)cc12 [SIM-1, 4-[(5-chloro-1-benzothiophen-3-yl)methylamino]-4-oxobutanoic acid] | strongly reduced the size and color intensities of cells | weakly induced apoptosis | strong reduction |
| CCOC(=O)c1c(NC(C)=O)sc2c(Cl)c(/C=N/O)ccc12 [SIM-2, ethyl 2-acetamido-7-chloro-6-(hydroxyiminomethyl)-1-benzothiophene-3-carboxylate] | strongly reduced the size and color intensities of cells | weakly induced apoptosis | strong reduction |
